Measurements as given in EP0748800A2, “Pyrimidinedione, pyrimidinetrione, triazinedione, tetrahydroquinazolinedione derivatives as alpha-1-adrenergic receptor antagonists” (priority 1995, dated 1996).

Tests used:
[1] = tested on: anesthetized dog; settings: in vivo, iv
Experimental: (§1) The following describes an in vivo assay for measuring the relative effect of test compounds on hypogastric nerve stimulation-induced increases in intraurethral pressure and phenylephrine-induced increases in diastolic blood pressure in anesthetized dog.
(§2) Mongrel dogs (10 to 20 kg) were fasted for 12 to 18 hours and anesthetized with pentobarbital sodium (35 mg/kg, i.v.). An endotracheal tube was inserted and thereafter the lungs were mechanically ventilated with room air. The right femoral vein was isolated and cannulated with two polyethylene cannulae, one for the administration of a continuous infusion of pentobarbital sodium (5 to 10 mg/kg/hr) and the other for bolus administration of test substances. The right femoral artery was isolated and cannulated to the abdominal aorta with a fluid filled polyethylene cannula connected to an external pressure transducer for monitoring diastolic aortic pressure (DAP). The bladder was exposed via a ventral midline abdominal incision and emptied of urine through a 22 gauge needle. The bladder was cannulated through a stab incision with a water filled balloon catheter connected to an external pressure transducer for monitoring prostatic intraurethral pressure (IUP). The right hypogastric nerve (HGN) was carefully isolated and attached to a Dastre's electrode for nerve stimulation. […]

[2] = tested on: anesthetized dog; test: Dog in vivo intraurethral pressure assay (hypogastric nerve stimulation); settings: i.v., increasing doses, relative to DAP
Experimental: as §1, §2

[3] = tested on: α1-adrenoceptor; settings: relative to human isolated arterial smooth muscle; agonist norepinephrine
From the text: (§3) The following describes in vitro assays for measuring the relative effect of test compounds on α1-adrenoceptor mediated contractions of human, isolated arterial and urinary bladder smooth muscle.
Human prostatic and bladder neck smooth muscle tissue was obtained following radical cystoprostatectomies or radical prostatectomies and immediately immersed in Krebs' solution. The prostatic and bladder tissue was dissected free from extraneous tissue and then strips of tissue 0.8 to 1.2 cm in length and 3 to 5 mm in width were cut and suspended vertically in 10 ml tissue baths and bathed in Kreb's solution maintained at 37°C and constantly aerated with a 95% O2 and 5% CO2 gas mixture. A resting tension of 0.75 to 1 g was applied to each muscle strip and thereafter periodically readjusted to maintain a 1 g resting tension throughout the duration of the assay. […]
(§4) The tissue was then exposed to solution free of norepinephrine, replacing the solution twice every 5 minutes for 30 minutes. After baseline tension was established and readjusted to 1 g, the tissue was exposed to bath solution containing the test compound, replacing the solution every 15 minutes for 60 minutes. […]
(§5) The concentration ratio (CR) of norepinephrine necessary to produce equiactive responses in the absence and presence of the test compound was determined. […]

[4] = tested on: α1-adrenoceptor; settings: relative to rabbit isolated urinary bladder smooth muscle; agonist norepinephrine
From the text: The following describes in vitro assays for measuring the relative effect of test compounds on α1-adrenoceptor mediated contraction of rat, isolated aortic smooth muscle and rabbit, isolated urinary bladder smooth muscle.
Thoracic aorta were isolated from rats and immediately immersed in Krebs' solution (comprising in mM concentrations: NaCl, 118.5; NaHCO3, 25; dextrose, 5; KCl, 4.8; CaCl2, 2.5; MgSO4, 1.2; KH2PO4, 1.2; cocaine, 0.03; corticosterone, 0.03; propranolol, 0.001; ascorbic acid, 0.1; and indomethacin, 0.01). The aortas were dissected free from extraneous tissue and then a cross sectional ring approximately 3 mm in length was cut from the most proximal segment. […] A resting tension of 1 g was applied to each aortic ring and thereafter periodically readjusted to maintain a 1 g resting tension throughout the duration of the assay. […]
The tissue was then exposed to solution free of agonist, replacing the solution twice every 5 minutes for 30 minutes. After baseline tension was established and readjusted to 1 g, the tissue was exposed to bath solution containing the test compound, replacing the solution every 15 minutes for 60 minutes. […]
The concentration ratio (CR) of agonist necessary to produce equiactive responses in the absence and presence of the test compound was determined. […]

[5] = tested on: α1-adrenoceptor; settings: relative to human prostatic/bladder neck smooth muscle; agonist norepinephrine
Experimental: as §3
Human arterial blood vessels were obtained post-mortem and immediately immersed in cold physiological saline solution. Within 24 hours of removal the isolated arterial tissue was placed in Krebs' solution (comprising in mM concentrations: NaCl, 118.5; NaHCO3, 25; dextrose, 5; KCl, 4.8; CaCl2, 2.5; MgSO4, 1.2; KH2PO4, 1.2; cocaine, 0.03; corticosterone, 0.03; propranolol, 0.001; ascorbic acid, 0.1; and indomethacin, 0.01). The arteries were dissected free from extraneous tissue and then cut into cross sectional rings approximately 3 mm in length. […] A resting tension of 1 to 1.5 g was applied to each ring and thereafter periodically readjusted to maintain a 1 g resting tension throughout the duration of the assay. […]
as §4, §5

COc1cc2nc(N3CCN(C(=O)c4ccco4)CC3)nc(N)c2cc1OC [prazosin]
inhibition of phenylephrine-induced increases in DAP [1]: inhibited increases in IUP and DAP in a similar fashion
inhibition of HGN stimulation-induced increases in IUP [2]: inhibited increases in IUP and DAP in a similar fashion
inhibition of α1-adrenoceptor mediated contractions of human, isolated prostatic and bladder neck smooth muscle [3]: non-selectively inhibited
inhibition of α1-adrenoceptor mediated contractions of rat, isolated aortic smooth muscle [4]: selectively inhibited
inhibition of α1-adrenoceptor mediated contractions of human, isolated arterial smooth muscle [5]: non-selectively inhibited
